Results reported in patent US20060100431A1, “Biologically active compounds” (Amura Therapeutics Limited, priority 2002, published 2006).
Read-outs that look alike come from different tables or passages of the source.

What was measured:
[1] = target: T1, Bovine cathepsin S (Bos taurus, UniProt P25326); experiment: Cathepsin S peptidase activity assay, bovine enzyme (Ki); assay type: biochemical
T1 construct: purchased CN Biosciences
Procedure, shortened: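 Bovine cathepsin S activity followed by fluorescence increase from substrate conversion to product over time, enzyme added to start the reaction, at 25±1° C. Buffer 10 mM bis-tris-propane pH 6.5 with 1 mM EDTA, 5 mM 2-mercaptoethanol, 1 mM CaCl2; DMSO kept below 1% (vol./vol.).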

[2] = target: T2, human cathepsin L (Homo sapiens, UniProt P07711); experiment: Cathepsin L peptidase activity assay (Ki); assay type: biochemical
T2 construct: purchased CN Biosciences
Procedure, shortened: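 Human cathepsin L at 1 nM with Ac-Phe-Arg-AMC at its KM^app (~20 μM) in 10 mM bis-tris-propane pH 6.5, 1 mM EDTA, 5 mM 2-mercaptoethanol, 1 mM CaCl2, DMSO <1%, 25±1° C. Reaction enzyme-initiated; AMC fluorescence (ex 365/em 450 nm) monitored over time.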

[3] = Table 5, read-out: Ki Bovine Cathepsin S
[4] = Table 5, read-out: Ki Human Cathepsin L
[5] = species of cathepsin S not given, read-out: Ki, inhibitors of cathepsin S
[6] = read-out: Ki, inhibitors of cathepsin L

T2 sequence (P07711 114-333): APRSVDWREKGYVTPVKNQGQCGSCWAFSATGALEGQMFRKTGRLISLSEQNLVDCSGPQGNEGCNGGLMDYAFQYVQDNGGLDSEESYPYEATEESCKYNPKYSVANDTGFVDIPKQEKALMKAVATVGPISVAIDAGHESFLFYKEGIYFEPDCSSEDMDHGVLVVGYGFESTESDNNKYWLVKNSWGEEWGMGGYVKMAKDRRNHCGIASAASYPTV
T1 sequence (P25326 115-331): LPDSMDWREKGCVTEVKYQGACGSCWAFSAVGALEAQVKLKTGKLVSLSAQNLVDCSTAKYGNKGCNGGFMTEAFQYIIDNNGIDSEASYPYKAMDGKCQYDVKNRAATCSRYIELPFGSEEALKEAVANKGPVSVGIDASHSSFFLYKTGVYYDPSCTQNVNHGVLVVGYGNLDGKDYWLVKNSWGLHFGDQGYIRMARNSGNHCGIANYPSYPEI

CC(C)C[C@H](NC(=O)c1ccc(-c2cccs2)cc1)C(=O)N1CC[C@@H]2[C@H]1C(=O)CN2C(=O)c1ccccc1 [Example 2, (3aR,6aS)-N-[(1S)-1-(4-Benzoyl-6-oxo-hexahydro-pyrrolo[3,2-b]pyrrole-1-carbonyl)-3-methyl-butyl]-4-thiophen-2-yl-benzamide]
Ki [1, 3]: > 1 µM | Ki [2, 4]: > 3 µM

CC(C)C[C@H](NC(=O)c1cc2ccccc2s1)C(=O)N1CC[C@@H]2[C@H]1C(=O)CN2C(=O)c1ccccc1 [Example 7, (3aR,6aS)-Benzo[b]thiophene-2-carboxylic acid [(1S)-1-(4-benzoyl-6-oxo-hexahydro-pyrrolo[3,2-b]pyrrole-1-carbonyl)-3-methyl-butyl]-amide]
Ki [1, 5]: < 5 µM | Ki [2, 6]: < 5 µM

CC(C)C[C@H](NC(=O)c1ccc(N(C)C)cc1)C(=O)N1CC[C@@H]2[C@H]1C(=O)CN2C(=O)c1ccccc1 [Example 14, (3aR,6aS)-N-[(1S)-1-(4-Benzoyl-6-oxo-hexahydro-pyrrolo[3,2-b]pyrrole-1-carbonyl)-3-methyl-butyl]-4-dimethylamino-benzamide]
Ki [1, 5]: < 5 µM | Ki [2, 6]: < 5 µM

CC(C)C[C@H](NC(=O)c1cccc(N(C)C)c1)C(=O)N1CC[C@@H]2[C@H]1C(=O)CN2C(=O)c1cccc(S(C)(=O)=O)c1 [Example 59, (3aR,6aS)-3-Dimethylamino-N-{(1S)-1-[4-(3-methanesulfonyl-benzoyl)-6-oxo-hexahydro-pyrrolo[3,2-b]pyrrole-1-carbonyl]-3-methyl-butyl}-benzamide]
Ki [1, 5]: < 5 µM | Ki [2, 6]: < 5 µM

CC(C)C[C@H](NC(=O)c1ccc2c(c1)CCCN2)C(=O)N1CC[C@@H]2[C@H]1C(=O)CN2C(=O)c1ccccc1 [Example 87, (3aR,6aS)-1,2,3,4-Tetrahydro-quinoline-6-carboxylic acid [(1S)-1-(4-benzoyl-6-oxo-hexahydro-pyrrolo[3,2-b]pyrrole-1-carbonyl)-3-methyl-butyl]-amide]
Ki [1, 5]: < 5 µM | Ki [2, 6]: < 5 µM

CC(C)C[C@H](NC(=O)c1ccc2ncsc2c1)C(=O)N1CC[C@@H]2[C@H]1C(=O)CN2C(=O)c1ccccc1 [Example 90, (3aR,6aS)-Benzothiazole-6-carboxylic acid [(1S)-1-(4-benzoyl-6-oxo-hexahydro-pyrrolo[3,2-b]pyrrole-1-carbonyl)-3-methyl-butyl]-amide]
Ki [1, 5]: < 5 µM | Ki [2, 6]: < 5 µM

CC(C)C[C@H](NC(=O)c1ccc(-n2cccn2)cc1)C(=O)N1CC[C@@H]2[C@H]1C(=O)CN2C(=O)c1ccccc1 [Example 91, (3aR,6aS)-N-[(1S)-1-(4-Benzoyl-6-oxo-hexahydro-pyrrolo[3,2-b]pyrrole-1-carbonyl)-3-methyl-butyl]-4-pyrazol-1-yl-benzamide]
Ki [1, 5]: < 5 µM | Ki [2, 6]: < 5 µM

CC(C)C[C@H](NC(=O)c1ccc(N(C)C)cc1)C(=O)N1CC[C@@H]2[C@H]1C(=O)CN2C(=O)c1csc2ccccc12 [Example 103, (3aR,6aS)-N-{(1S)-1-[4-(Benzo[b]thiophene-3-carbonyl)-6-oxo-hexahydro-pyrrolo[3,2-b]pyrrole-1-carbonyl]-3-methyl-butyl}-4-dimethylamino-benzamide]
Ki [1, 5]: < 5 µM | Ki [2, 6]: < 5 µM

CC(=O)N[C@@H](CC(C)C)C(=O)N1CC(=O)[C@@H]2[C@H]1CCN2C(=O)[C@H](CC(C)C)NC(=O)c1ccc(N(C)C)cc1 [Example 151, (3aR,6aS)-N-{(1S)-1-[4-((2S)-2-Acetylamino-4-methyl-pentanoyl)-6-oxo-hexahydro-pyrrolo[3,2-b]pyrrole-1-carbonyl]-3-methyl-butyl}-4-dimethylamino-benzamide]
Ki [1, 5]: < 5 µM | Ki [2, 6]: < 5 µM

CC(C)C[C@H](NC(=O)c1ccc(N(C)C)cc1)C(=O)N1CC[C@@H]2[C@H]1C(=O)CN2C(=O)[C@@H](NC(=O)OCc1ccccc1)C(C)C [Example 158, (3aS,6aR)-((S)-1-{4-[(2S)-2-(4-Dimethylamino-benzoylamino)-4-methyl-pentanoyl]-3-oxo-hexahydro-pyrrolo[3,2-b]pyrrole-1-carbonyl}-2-methyl-propyl)-carbamic acid benzyl ester]
Ki [1, 5]: < 5 µM | Ki [2, 6]: < 5 µM

CC(C)C[C@H](NC(=O)c1ccc(OC(F)(F)F)cc1)C(=O)N1CC[C@@H]2[C@H]1C(=O)CN2C(=O)c1ccccc1 [Example 173, (3aR,6aS)-N-[(1S)-1-(4-Benzoyl-6-oxo-hexahydro-pyrrolo[3,2-b]pyrrole-1-carbonyl)-3-methyl-butyl]-4-trifluoromethoxy-benzamide]
Ki [1, 5]: < 5 µM | Ki [2, 6]: < 5 µM

CC(C)C[C@H](NC(=O)c1ccc(N2CCNCC2)cc1)C(=O)N1CC[C@@H]2[C@H]1C(=O)CN2C(=O)c1ccccc1 [Example 194, (3aR,6aS)-N-[(1S)-1-(4-Benzoyl-6-oxo-hexahydro-pyrrolo[3,2-b]pyrrole-1-carbonyl)-3-methyl-butyl]-4-piperazin-1-yl-benzamide]
Ki [1, 5]: < 5 µM | Ki [2, 6]: < 5 µM

CC(C)C[C@H](NC(=O)c1cccc(N2CCNCC2)c1)C(=O)N1CC[C@@H]2[C@H]1C(=O)CN2C(=O)c1ccccc1 [Example 247, (3aR,6aS)-N-[(1S)-1-(4-Benzoyl-6-oxo-hexahydro-pyrrolo[3,2-b]pyrrole-1-carbonyl)-3-methyl-butyl]-3-piperazin-1-yl-benzamide]
Ki [1, 5]: < 5 µM | Ki [2, 6]: < 5 µM

CC(C)C[C@H](NC(=O)c1ccc(C(C)(C)C)cc1)C(=O)N1NC[C@@H]2[C@H]1C(=O)CN2C(=O)c1ccccc1 [Example 249a, (3aR,6aS)-N-[(1S)-1-(4-benzoyl-6-oxo-hexahydropyrrolo[3,2-c]pyrazole-1-carbonyl)-3-methylbutyl]-4-tert-butylbenzamide]
Ki [1, 5]: < 5 µM | Ki [2, 6]: < 5 µM

CC(C)CC(NC(=O)c1ccc(N)cc1)C(=O)N1NC[C@@H]2[C@H]1C(=O)CN2C(=O)c1ccccc1 (stereo partly drawn) [Example 249b, (3aR,6aS)-4-amino-N-[1-(4-benzoyl-6-oxo-hexahydropyrrolo[3,2-c]pyrazole-1-carbonyl)-3-methylbutyl)benzamide]
Ki [1, 5]: < 5 µM | Ki [2, 6]: < 5 µM

CC(C)C[C@H](NC(=O)c1ccc(N)cc1)C(=O)N1NC[C@@H]2[C@H]1C(=O)CN2C(=O)c1cccc(S(C)(=O)=O)c1 [Example 249c, (3aR,6aS)-4-amino-N-{(1S)-1-[4-(3-methanesulfonylbenzoyl)-6-oxo-hexahydropyrrolo [3,2-c]pyrazole-1-carbonyl]-3-methylbutyl}benzamide]
Ki [1, 5]: < 5 µM | Ki [2, 6]: < 5 µM

O=C(N[C@@H](CC1CCCCC1)C(=O)N1CC[C@@H]2[C@H]1C(=O)CN2C(=O)c1ccccc1)c1ccsc1 [Example 250, (3aR,6aS)-Thiophene-3-carboxylic acid [(1S)-2-(4-benzoyl-6-oxo-hexahydro-pyrrolo[3,2-b]pyrrole-1-yl)-1-cyclohexylmethyl-2-oxo-ethyl]-amide]
Ki [1, 3]: < 0.1 µM | Ki [2, 4]: > 1 µM | Ki [2, 6]: < 5 µM

O=C(N[C@@H](Cc1ccc(O)cc1)C(=O)N1CC[C@@H]2[C@H]1C(=O)CN2C(=O)c1ccccc1)c1cccc2ccccc12 [Example 296, (3aR,6aS)-Naphthalene-1-carboxylic acid [(1S)-2-(4-benzoyl-6-oxo-hexahydro-pyrrolo[3,2-b]pyrrole-1-yl)-1-(4-hydroxybenzyl)-2-oxo-ethyl]-amide]
Ki [1, 3]: > 5 µM | Ki [2, 4]: < 0.2 µM

CC(C)(C)c1ccc(C(=O)N[C@@H](Cc2ccc(O)cc2)C(=O)N2CC[C@@H]3[C@H]2C(=O)CN3C(=O)c2ccccc2)cc1 [Example 346, (3aR,6aS)-N-[(1S)-2-(4-Benzoyl-6-oxo-hexahydro-pyrrolo[3,2-b]pyrrol-1-yl)-1-(4-hydroxybenzyl)-2-oxo-ethyl]-4-tert-butyl-benzamide]
Ki [1, 3]: > 10 µM | Ki [2, 4]: > 3 µM | Ki [2, 6]: < 5 µM
